Measurements published in patent US20220146526A1, “METHOD FOR EVALUATING SAMPLE, ANALYSIS METHOD, METHOD FOR DETECTING DEGRADED SAMPLE, MARKER FOR DETECTING DEGRADED BLOOD PLASMA SAMPLE, AND MARKER FOR DETECTING DEGRADED SERUM SAMPLE” (SHIMADZU CORPORATION, priority 2019, published 2022).

Assays:
Format in all cases: physicochemical, human
[1] = LC/MS of serum sample: number of times of freezing and thawing (Table M); design: key to Rate of increase or decrease: detection intensity relative to 1 at 2 freeze-thaw cycles; details: for Number of times when compound is affected / Increase or decrease: serum sample, LC/MS; for Number of times when compound is affected: detection intensity changed by 30% or more vs 2 times of freezing and thawing; for Increase or decrease: detection intensity vs 2 times of freezing and thawing
Summary of the method: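 Serum was isolated at room temperature after centrifugation at room temperature, 3500 rpm, 5 minutes, then frozen and freeze-thawed 2, 4, 6 or 10 times. LC/MS used a Discovery HS F5-3 column at 40° C with formic acid water/acetonitrile, electrospray MRM. Intensity is relative to 2 freeze-thaw cycles.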

[2] = LC/MS of serum sample: time from centrifugation to isolation (Table K); design: key to Rate of increase or decrease: detection intensity relative to the 30-minute value set as 1; details: for Increase or decrease / Time when compound is affected: serum sample, LC/MS; for Increase or decrease: detection intensity vs 30 minutes from centrifugation to isolation; for Time when compound is affected: time from centrifugation to isolation, detection intensity changed by 30% or more vs 30 minutes
Experimental: After standing, the blood sample was subjected to centrifugation under a condition of room temperature, 3500 rpm, and 5 minutes. […] After centrifugation, the blood-collecting vessel was left to stand at room temperature, and the serum was isolated during this time. Here, in order to investigate how the detection intensity of molecules contained in the sample was affected in cases where the time during which the blood-collecting vessel was left at room temperature was set to 1 hour and 6 hours as compared to that in a case where the time was set to 30 minutes, preparations were performed under the respective conditions of 30 minutes, 1 hour, and 6 hours. The obtained serum sample was frozen and stored. Here, in order to investigate how the detection intensity of molecules contained in the sample was affected in cases where freezing and thawing was performed 4 times, 6 times, and 10 times after freezing as compared to that in a case where freezing and thawing was performed 2 times after freezing, freezing and thawing was performed under the respective conditions of 2, 4, 6, and 10 times.
Frozen blood plasma samples and serum samples were subjected to GC/MS or LC/MS. In GC/MS, the blood plasma samples and serum samples were subjected to methoxymation and trimethylsilylation and then introduced to GC-MS.
Analysis column: Discovery HS F5-3 (inner diameter of 2.1 mm, length of 150 mm, film thickness of 3 μm) (Sigma-Aldrich)
Column temperature: 40° C.
(A) 0.1% formic acid (dissolved in water)
(B) 0.1% formic acid (dissolved in acetonitrile)
Flow velocity: 0.25 mL/min
Ionization method: electrospray
Temperature: • Desolvation Line (DL) temperature: 250° C. • Heat block temperature: 400° C. • Interface temperature: 300° C.
Gas flow rate: • Nebulizer gas flow rate: 3.0 L/min • Drying gas flow rate: 10.0 L/min • Heating gas flow rate: 10.0 L/min
Mode: multiple reaction monitoring (MRM)
The rate of increase or decrease in Table K is the value of detection intensity relative to 1 that is the detection intensity in a case where the time from centrifugation to isolation is set to 30 minutes.

[3] = LC/MS of blood plasma sample: time from blood collection to centrifugation (Table D); details: for Increase or decrease: detection intensity; for Increase or decrease / Rate of increase or decrease: blood collection to centrifugation; for Rate of increase or decrease (second value, decrease) / Rate of increase or decrease (first value, increase): different from individual to individual, relative to 1 at 15 minutes, collection to centrifugation; for Rate of increase or decrease (second value, decrease): individuals with decrease; for Rate of increase or decrease (first value, increase): individuals with increase; for Rate of increase or decrease: detection intensity relative to 1 at 15 minutes
Summary of the method: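 Healthy-subject blood (5 mL, EDTA) cooled and held at 4 °C before centrifugation (4 °C, 3000 rpm, 15 min), with plasma then frozen. LC/MS on Discovery HS F5-3 column at 40 °C, 0.1% formic acid water/acetonitrile, 0.25 mL/min, electrospray, MRM; intensities relative to 15 min collection-to-centrifugation set as 1.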

[4] = LC/MS of serum sample: time from blood collection to centrifugation (Table J); details: for Increase or decrease / Time when compound is affected: serum sample, LC/MS; for Increase or decrease: detection intensity vs 15 minutes from blood collection to centrifugation; for Time when compound is affected: time from blood collection to centrifugation, detection intensity changed by 30% or more vs 15 minutes
Summary of the method: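 Serum from blood centrifuged at room temperature, 3500 rpm, 5 min, then frozen; analysed by LC/MS on a Discovery HS F5-3 column at 40 °C. Mobile phase: 0.1% formic acid in water/acetonitrile, 0.25 mL/min, electrospray MRM. Values are intensity relative to a 15 min collection-to-centrifugation time.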

[5] = LC/MS of blood plasma sample: number of times of freezing and thawing (Table F); details: for Rate of increase or decrease: detection intensity relative to 1 at 2 times; for Increase or decrease: detection intensity
Summary of the method: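 Human blood from a healthy subject drawn into EDTA tubes, cooled to 4° C within 1 min or after ≥5 min, centrifuged at 4° C, 3000 rpm, 15 min. Plasma frozen, then freeze-thawed 2, 4, 6 or 10 times and analysed by LC/MS (ESI, MRM). Intensities expressed relative to 2 freeze-thaw cycles set as 1.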

[6] = GC/MS of blood plasma sample: time from blood collection to centrifugation (Table A)
Summary of the method: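 EDTA blood from a healthy subject was cooled at 4° C, centrifuged at 4° C, 3000 rpm, 15 minutes, and plasma was frozen. After methoxymation and trimethylsilylation, samples ran on GC/MS (BPX5 column, 60-330° C gradient, electron ionization, MRM). Intensity is relative to 15 minutes from collection to centrifugation.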

[7] = GC/MS of blood plasma sample: number of times of freezing and thawing (Table C)
Summary of the method: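 EDTA plasma from a healthy subject, cooled within 1 min or after 5+ min, centrifuged 4 °C/3000 rpm/15 min, frozen, then freeze-thawed 2, 4, 6 or 10 times. Methoximated, trimethylsilylated samples run by GC/MS (BPX5 column, EI, MRM). Values are detection intensity relative to 2 freeze-thaw cycles set as 1.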

[8] = GC/MS of blood plasma sample: time from blood collection to cooling of blood (Table B); design: key to Rate of increase or decrease / Rate of increase or decrease (first value, increase): detection intensity relative to 1 at cooling time ≤1 min
Summary of the method: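 Blood drawn at room temperature into EDTA tubes, mixed, then cooled at 4° C. within 1 minute or less versus 5 minutes or more before centrifugation (4° C., 3000 rpm, 15 minutes). Plasma was frozen, methoxymated and trimethylsilylated, and analysed by EI GC/MS in MRM mode. Values are detection intensity relative to the ≤1 minute condition.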

[9] = 4 times of freezing and thawing, detection intensity relative to 1 at 2 times
[10] = after 6 hours from blood collection to centrifugation, detection intensity relative to 1 at 15 minutes
[11] = after 1 hour, relative to 1 at 30 minutes, different from individual to individual, second value (decrease)
[12] = after 1 hour from centrifugation to isolation, detection intensity relative to 1 at 30 minutes
[13] = after 4 hours from blood collection to centrifugation, detection intensity relative to 1 at 15 minutes
[14] = freezing and thawing 6 times vs 2 times

Row | Rate of increase or decrease [1, 9] | Number of times when compound is affected [1] | Increase or decrease [1] | Increase or decrease [2] | Time when compound is affected [2] | Increase or decrease ([3]; after 12 hours vs 15 minutes) | Increase or decrease [4] | Time when compound is affected [4] | Rate of increase or decrease [4, 13] | SMILES | other results
1 | 1.55 | 4 times | Increase | Increase | After 6 hours | Different from individual | Increase | After 6 hours | – | C[S+]([O-])CC[C@H](N)C(=O)O (stereo partly drawn) [Methionine sulfoxide] | Rate of increase or decrease ([2]; after 6 hours from centrifugation to isolation, detection intensity relative to 1 at 30 minutes): 1.77; Rate of increase or decrease (second value, decrease) ([3]; after 12 hours): 0.54; Rate of increase or decrease (first value, increase) ([3]; after 12 hours): 1.36; Rate of increase or decrease [4, 10]: 1.65
2 | 1.47 | 4 times | Increase | Different from individual | After 1 hour hours | – | Different from individual | After 4 hours | – | Nc1nc2c(ncn2[C@@H]2O[C@@H]3COP(=O)(O)O[C@H]3[C@H]2O)c(=O)[nH]1 [Guanosine 3′,5′-cyclic monophosphate, guanosine 3′,5′-cyclic monophosphate] | Rate of increase or decrease [2, 11]: 0.46; Rate of increase or decrease ([4]; after 4 hours, relative to 1 at 15 minutes, different from individual to individual, first value (increase)): 3.62; Rate of increase or decrease ([4]; after 4 hours, relative to 1 at 15 minutes, different from individual to individual, second value (decrease)): 0.58
3 | 1.56 | 4 times | Increase | Decrease | After 1 hour hours | Decrease | – | – | – | N[C@@H](CSSC[C@H](N)C(=O)O)C(=O)O [Cystine] | Rate of increase or decrease [2, 12]: 0.67; Rate of increase or decrease ([5]; freezing and thawing 10 times): 0.54; Increase or decrease ([5]; freezing and thawing 10 times vs 2 times): Decrease; Rate of increase or decrease ([3]; after 12 hours): 0.45
4 | 0.59 | 4 times | Decrease | Different from individual | After 1 hour hours | – | Increase | After 4 hours | 2.83 | NCCC(=O)N[C@@H](Cc1cnc[nH]1)C(=O)O [Carnosine, carnosine] | Rate of increase or decrease ([2]; after 1 hour, relative to 1 at 30 minutes, different from individual to individual, first value (increase)): 1.41; Rate of increase or decrease [2, 11]: 0.56
5 | – | 6 times | Decrease | Decrease | After 1 hour hours | – | Decrease | After 4 hours | 0.08 | Nc1nc2c(ncn2[C@@H]2O[C@H](CO)[C@@H](O)[C@H]2O)c(=O)[nH]1 [Guanosine] | Rate of increase or decrease ([1]; 6 times of freezing and thawing, detection intensity relative to 1 at 2 times): 0.62; Rate of increase or decrease [2, 12]: 0.57; Rate of increase or decrease ([5]; freezing and thawing 6 times): 0.58; Increase or decrease [5, 14]: Decrease; Rate of increase or decrease ([3]; after 6 hours): 1.57; Increase or decrease ([3]; after 6 hours vs 15 minutes): Increase
6 | – | 6 times | Different from individual | Increase | After 1 hour hours | Decrease | Decrease | After 6 hours | – | N=C(N)NCCC[C@H](NC(CC(=O)O)C(=O)O)C(=O)O (stereo partly drawn) [Argininosuccinic acid] | Rate of increase or decrease ([1]; 6 times of freezing and thawing, relative to 1 at 2 times, different from individual to individual, first value (increase)): 1.38; Rate of increase or decrease ([1]; 6 times of freezing and thawing, relative to 1 at 2 times, different from individual to individual, second value (decrease)): 0.49; Rate of increase or decrease ([5]; freezing and thawing 4 times): 2.01; Increase or decrease ([5]; freezing and thawing 4 times vs 2 times): Increase; Rate of increase or decrease ([3]; after 12 hours): 0.61; Rate of increase or decrease [4, 10]: 0.65
7 | 0.68 | 4 times | Decrease | – | – | Different from individual | Increase | After 4 hours | 1.42 | O=c1ccn([C@@H]2O[C@H](CO)[C@@H](O)[C@H]2O)c(=O)[nH]1 [Uridine] | Increase or decrease ([6]; detection intensity, blood collection to centrifugation, after 4 hours vs 15 minutes): Different from individual; Rate of increase or decrease (second value, decrease) ([6]; different from individual to individual, individuals with decrease, relative to 1 at 15 minutes, collection to centrifugation, after 4 hours): 0.48; Rate of increase or decrease (first value, increase) ([6]; different from individual to individual, individuals with increase, relative to 1 at 15 minutes, collection to centrifugation, after 4 hours): 1.48; Rate of increase or decrease ([5]; freezing and thawing 6 times): 1.31; Increase or decrease [5, 14]: Increase; Rate of increase or decrease ([7]; detection intensity relative to 1 at 2 times, freezing and thawing 6 times): 0.69; Increase or decrease ([7]; detection intensity, freezing and thawing 6 times vs 2 times): Decrease; Rate of increase or decrease (second value, decrease) ([3]; after 12 hours): 0.60; Rate of increase or decrease (first value, increase) ([3]; after 12 hours): 1.67; Increase or decrease ([8]; detection intensity, blood collection to cooling 5 minutes or more vs 1 minute or less): Different from individual; Rate of increase or decrease (second value, decrease) ([8]; different from individual to individual, individuals with decrease, relative to 1 at 1 minute or less, collection to cooling 5 minutes): 0.64; Rate of increase or decrease (first value, increase) ([8]; different from individual to individual, individuals with increase, relative to 1 at 1 minute or less, collection to cooling 5 minutes): 2.62
